Experimental data taken from ChEMBL document CHEMBL5260795, “Antifungal potential of marine natural products” (Eur J Med Chem, 2017).
Values after ≈ are worked out from the molar mass of the structure shown. Blank lines part the entries; values can stand above or below the compound they belong to. Where a SMILES comes first, the peptide text is derived from it. The star is where a group is joined. X2 = CCC(C)CC(C)CCCC[C@@H](O)CC(=O)*

What was measured:
Aspergillus niger [1] = assay: Antifungal activity against Aspergillus niger; type: functional
Colletotrichum acutatum [2] = assay: Antifungal activity against Colletotrichum acutatum; type: functional
Rhizoctonia solani [3] = assay: Antifungal activity against Rhizoctonia solani; type: functional
Candida albicans [4] = assay: Antifungal activity against Candida albicans; type: functional, organism-based
Botrytis cinerea [5] = assay: Antifungal activity against Botrytis cinerea; type: functional
Candida albicans [6] = assay: Antifungal activity against Candida albicans assessed as fungal growth inhibition; type: functional
Rhizoctonia solani [7] = assay: Antifungal activity against Rhizoctonia solani incubated for 48 hrs by standard broth dilution method; type: functional
Phytophthora capsici = assay: Antifungal activity against Phytophthora capsici incubated for 48 hrs by standard broth dilution method; type: functional
Colletotrichum acutatum [8] = assay: Antifungal activity against Colletotrichum acutatum incubated for 48 hrs by standard broth dilution method; type: functional
Botrytis cinerea [9] = assay: Antifungal activity against Botrytis cinerea incubated for 48 hrs by standard broth dilution method; type: functional
[10] = system: Colletotrichum gloeosporioides; assay: Antifungal activity against Colletotrichum gloeosporioides; type: functional
Saccharomyces cerevisiae [11] = assay: Antifungal activity against Saccharomyces cerevisiae; type: functional
[12] = Inhibition of Candida albicans CaCdr1p transporter ATPase activity
[13] = Inhibition of Candida albicans CaCdr1p transporter assessed as reduction in rhodamine 6G efflux
Rhizoctonia solani [14] = assay: Antimicrobial activity against Rhizoctonia solani incubated for 72 hrs by standard broth dilution method; type: functional
Aspergillus niger [15] = assay: Antimicrobial activity against Aspergillus niger incubated for 72 hrs by standard broth dilution method; type: functional
Colletotrichum acutatum [16] = assay: Antimicrobial activity against Colletotrichum acutatum incubated for 72 hrs by standard broth dilution method; type: functional
Botrytis cinerea [17] = assay: Antimicrobial activity against Botrytis cinerea incubated for 72 hrs by standard broth dilution method; type: functional
Candida albicans [18] = assay: Antimicrobial activity against Candida albicans incubated for 72 hrs by standard broth dilution method; type: functional
Saccharomyces cerevisiae [19] = assay: Antimicrobial activity against Saccharomyces cerevisiae incubated for 72 hrs by standard broth dilution method; type: functional
Candida albicans [20] = assay: Antifungal activity against Candida albicans ATCC 24433; type: functional

MIC (Aspergillus niger [1]): 0.02 µg/mL (≈ 0.0313 µM)
MIC (Colletotrichum acutatum [2]): 0.02 µg/mL (≈ 0.0313 µM)
MIC (Rhizoctonia solani [3]): 0.02 µg/mL (≈ 0.0313 µM)
MIC (Candida albicans [4]): 0.02 µg/mL (≈ 0.0313 µM)
MIC (Botrytis cinerea [5]): 0.02 µg/mL (≈ 0.0313 µM)
Structure (SMILES): CCCCCCCCCCCCCCC(=O)OCC(O)CO[C@@H]1O[C@H](CO[C@@H]2C[C@H](CO)[C@@H](O)[C@H](O)[C@H]2O)[C@@H](O)[C@H](O)[C@H]1O (some centres not stated)

MIC (Candida albicans [6]): 0.62 µg/mL (≈ 2.54 µM)
Structure (SMILES): CCCC[C@H](CC)c1nc2ccccc2c(=O)[nH]1

MIC (Rhizoctonia solani [7]): 0.01 µg/mL (≈ 0.014 µM)
MIC (Phytophthora capsici): 0.01 µg/mL (≈ 0.014 µM)
MIC (Colletotrichum acutatum [8]): 0.01 µg/mL (≈ 0.014 µM)
MIC (Botrytis cinerea [9]): 0.01 µg/mL (≈ 0.014 µM)
Structure (SMILES): CCC(C)CC(C)CCCC[C@@H](O)CC(=O)N[C@@H](CC(C)C)C(=O)N[C@@H](CCC(=O)O)C(=O)N[C@@H](CC(C)C)C(=O)N[C@@H](CC(C)C)C(=O)O (some centres not stated) (X2-LELL-OH)

MIC [10]: 0.125 µg/mL (≈ 0.449 µM)
Structure (SMILES): CC(=O)O[C@@H]1C[C@H](C)[C@@]23CC=C(C)[C@@H](C2)C[C@@](C)(O)[C@@H]13

MIC (Saccharomyces cerevisiae [11]): 0.22 µg/mL (≈ 0.765 µM)
Structure (SMILES): CCCCCCCCCCCC(=O)N(CCO)CCO

MIC (Candida albicans [4]): 0.1 µg/mL (≈ 0.101 µM)
Structure (SMILES): CC(C)C[C@@H](C)[C@@H](O)[C@@H](C)C(=O)N[C@H](C)C(=O)N[C@@H](CCCNC(=N)N)[C@@H](O)[C@@H](O)C(=O)N[C@H](C(=O)N[C@@H](C(=O)N[C@@H](C(=O)N[C@H](CCCNC(=N)N)C(=O)O)[C@@H](C)O)[C@@H](C)O)[C@@H](C)[C@@H](C)C(N)=O

MIC (Aspergillus niger [1]): 0.02 µg/mL (≈ 0.033 µM)
MIC (Colletotrichum acutatum [2]): 0.02 µg/mL (≈ 0.033 µM)
MIC (Rhizoctonia solani [3]): 0.02 µg/mL (≈ 0.033 µM)
MIC (Candida albicans [4]): 0.02 µg/mL (≈ 0.033 µM)
MIC (Botrytis cinerea [5]): 0.02 µg/mL (≈ 0.033 µM)
Structure (SMILES): CC[C@H](CCCCCCCCCCCCC(=O)N[C@@H](C)C(=O)O)O[C@@H]1O[C@H](COC(=O)CCC(=O)O)[C@@H](O)[C@H](O)[C@H]1O

MIC (Candida albicans [4]): 1.56 µg/mL (≈ 3.29 µM)
Structure (SMILES): CC(C)[C@@H](C)[C@@H]1O[C@@H]1[C@@H](C)[C@H]1[C@@H](O)C[C@]2(O)C3=CC=C4C[C@@H](O)CC[C@]4(C)C3[C@H](O)C(=O)[C@]12C (some centres not stated)

IC50 [12]: 0.31 µg/mL (≈ 0.488 µM)
IC50 [13]: 2.29 µg/mL (≈ 3.61 µM)
Structure (SMILES): CCC[C@@H]1CC(=O)N[C@@H](CC(C)C)C(=O)N[C@H](Cc2ccccc2)C(=O)N[C@@H](CC(C)C)C(=O)N[C@@H](Cc2ccccc2)C(=O)O1

MIC (Rhizoctonia solani [14]): 0.02 µg/mL (≈ 0.0494 µM)
MIC (Aspergillus niger [15]): 0.02 µg/mL (≈ 0.0494 µM)
MIC (Colletotrichum acutatum [16]): 0.02 µg/mL (≈ 0.0494 µM)
MIC (Botrytis cinerea [17]): 0.02 µg/mL (≈ 0.0494 µM)
MIC (Candida albicans [18]): 0.02 µg/mL (≈ 0.0494 µM)
MIC (Saccharomyces cerevisiae [19]): 0.02 µg/mL (≈ 0.0494 µM)
Structure (SMILES): C[C@@H]1CCCCC/C=C/[C@H](O)C[C@@H](O)C/C=C\C=C\[C@@H](O)C/C=C/C=C\C(=O)O1

MIC (Aspergillus niger [1]): 1 µg/mL (≈ 4.92 µM)
Structure (SMILES): Cc1ccc(CC2CCC(=O)N2)c(C)c1 (configuration not stated)

MIC (Candida albicans [4]): 2.48 µg/mL (≈ 3.49 µM)
Structure (SMILES): C[C@@H]1NC(=O)[C@@H](Cc2ccccc2)NC(=O)[C@@H](CO)NC(=O)c2ccccc2NC(=O)/C(=C\c2c[nH]c3ccccc23)NC(=O)[C@H]([C@@H](C)O)NC1=O

MIC (Rhizoctonia solani [14]): 0.02 µg/mL (≈ 0.0301 µM)
MIC (Aspergillus niger [15]): 0.02 µg/mL (≈ 0.0301 µM)
MIC (Colletotrichum acutatum [16]): 0.02 µg/mL (≈ 0.0301 µM)
MIC (Botrytis cinerea [17]): 0.02 µg/mL (≈ 0.0301 µM)
MIC (Candida albicans [18]): 0.02 µg/mL (≈ 0.0301 µM)
MIC (Saccharomyces cerevisiae [19]): 0.02 µg/mL (≈ 0.0301 µM)
Structure (SMILES): C[C@@H]1CCC/C=C/C=C/[C@H](O)C[C@@H](O)C/C=C\C=C\[C@@H](OC(=O)CCC(=O)O[C@H]2O[C@@H](CO)[C@H](O)[C@@H](O)[C@@H]2O)C/C=C/C=C\C(=O)O1

MIC (Candida albicans [6]): 0.62 µg/mL (≈ 2.52 µM)
Structure (SMILES): CCCC[C@H](CC)C1NC(=O)c2ccccc2N1 (some centres not stated)

MIC (Candida albicans [20]): 0.07 µg/mL (≈ 0.0974 µM)
Structure (SMILES): CC(C)C[C@@H](C)[C@@H](O)[C@@H](C)C(=O)N[C@H](C)C(=O)N[C@@H](CCCNC(=N)N)[C@@H](O)[C@@H](O)C(=O)N[C@@H](C(=O)N[C@@H](C(=O)O)[C@@H](C)O)[C@@H](C)CC(N)=O

MIC [10]: 1 µg/mL (≈ 4.23 µM)
Structure (SMILES): CC1=CC[C@]23C[C@H]1C[C@@](C)(O)[C@H]2[C@H](O)C[C@@H]3C

Structure (SMILES): C[C@@H]1CCC/C=C/C=C/[C@H](O)C[C@@H](O)C[C@@H]2O[C@@H]2/C=C/[C@@H](O)C/C=C/C=C\C(=O)O1 [GAGEOMACROLACTIN 1]
MIC (Rhizoctonia solani [14]): 0.02 µg/mL (≈ 0.0478 µM)
MIC (Aspergillus niger [15]): 0.02 µg/mL (≈ 0.0478 µM)
MIC (Colletotrichum acutatum [16]): 0.02 µg/mL (≈ 0.0478 µM)
MIC (Botrytis cinerea [17]): 0.02 µg/mL (≈ 0.0478 µM)
MIC (Candida albicans [18]): 0.02 µg/mL (≈ 0.0478 µM)
MIC (Saccharomyces cerevisiae [19]): 0.02 µg/mL (≈ 0.0478 µM)

MIC (Saccharomyces cerevisiae [11]): 0.22 µg/mL (≈ 0.379 µM)
Structure (SMILES): CC1CCC/C=C/[C@@H]2O[C@@H](C/C=C\C=C\[C@H](O[C@@H]3O[C@H](CO)[C@@H](O)[C@H](O)[C@H]3O)C/C=C/C=C\C(=O)O1)C[C@@H](O)[C@H]2O (some centres not stated)

IC50 [12]: 0.46 µg/mL (≈ 0.694 µM)
IC50 [13]: 3.74 µg/mL (≈ 5.64 µM)
Structure (SMILES): CCCCC[C@@H]1CC(=O)N[C@@H](CC(C)C)C(=O)N[C@H](Cc2ccccc2)C(=O)N[C@@H](CC(C)C)C(=O)N[C@@H](Cc2ccccc2)C(=O)O1
